Measured values published in patent US8859571B2, “Quinazoline compounds” (GlaxoSmithKline LLC, priority 2009, dated 2014).
Several values for one entry are separate records, joined by “and”; a condition that tells them apart may be missing. Identical values can stand only once. Counter-ions that a name gives are not always drawn.

biological target: T1, Full length human TNNI3K (hTNNI3K) (Homo sapiens, UniProt Q59H18); assay: Fluorescent polarization assay of compound inhibition on hTNNI3K ATP binding (Biological Assay Method I); conditions: displacement of fluorescent ligand from hTNNI3K ATP binding pocket; mean of a minimum of 2 experiments; read-out: pXC50 (the source's name) (converted)
T1 construct: His-MBP-TEV-Full length human TNNI3K (hTNNI3K); His (N); MBP (N); TEV cleavage site (N); made in house; host or cells: baculovirus system (printed 'Baculokinase system')
T1 sequence (Q59H18 1-835): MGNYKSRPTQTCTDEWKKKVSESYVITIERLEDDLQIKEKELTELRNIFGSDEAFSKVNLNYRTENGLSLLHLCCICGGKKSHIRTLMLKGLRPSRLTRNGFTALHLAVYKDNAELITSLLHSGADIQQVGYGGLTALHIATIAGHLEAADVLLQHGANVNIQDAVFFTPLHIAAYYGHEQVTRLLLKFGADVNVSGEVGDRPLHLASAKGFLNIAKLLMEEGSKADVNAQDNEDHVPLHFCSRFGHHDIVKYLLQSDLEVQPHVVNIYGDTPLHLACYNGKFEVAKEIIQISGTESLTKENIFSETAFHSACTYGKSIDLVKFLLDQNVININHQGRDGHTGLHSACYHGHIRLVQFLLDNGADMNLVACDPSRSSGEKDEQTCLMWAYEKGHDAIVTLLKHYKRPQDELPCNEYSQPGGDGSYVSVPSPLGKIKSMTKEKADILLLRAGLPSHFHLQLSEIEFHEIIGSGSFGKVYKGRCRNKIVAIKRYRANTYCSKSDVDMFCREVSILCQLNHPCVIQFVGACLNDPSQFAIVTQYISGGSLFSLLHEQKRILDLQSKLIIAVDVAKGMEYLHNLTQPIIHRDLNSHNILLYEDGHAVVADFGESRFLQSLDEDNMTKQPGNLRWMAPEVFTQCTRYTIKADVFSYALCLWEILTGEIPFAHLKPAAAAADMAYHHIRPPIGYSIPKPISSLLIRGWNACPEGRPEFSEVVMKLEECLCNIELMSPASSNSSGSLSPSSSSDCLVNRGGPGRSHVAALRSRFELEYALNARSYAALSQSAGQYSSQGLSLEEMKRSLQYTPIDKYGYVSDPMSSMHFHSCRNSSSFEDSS
Text: Materials: His-MBP-TEV-Full length human TNNI3K (hTNNI3K) was expressed in Baculokinase system and purified from amylase affinity column followed by Superdex200. The fluorescent ligand 5-({[2-({[3-({4-[(5-hydroxy-2-methylphenyl)amino]-2-pyrimidinyl}amino)phenyl]carbonyl}amino)ethyl]amino}carbonyl)-2-(6-hydroxy-3-oxo-3H-xanthen-9-yl)benzoic acid was used. The preparation of this fluorescent ligand is disclosed in U.S. Provisional Patent Application No. 61/237,815 filed Aug. 28, 2009, the disclosure of which is incorporated by reference herein. The other buffer components, including MgCl2 (Catalog Number M1028), Bis-Tris (Catalog Number B7535), DTT (Catalog Number D9779) and Chaps (Catalog Number C3023) were purchased from Sigma-Aldrich.
Biological Assay Method I:
A fluorescent polarization assay was used to determine does response of compound inhibition on hTNNI3K ATP binding.
Solution 1: Ten (10) mL of a 5 nM 5-({[2-({[3-({4-[(5-hydroxy-2-methylphenyl)amino]-2-pyrimidinyl}amino)phenyl]carbonyl}amino)ethyl]amino}carbonyl)-2-(6-hydroxy-3-oxo-3H-xanthen-9-yl)benzoic acid solution (Solution 1) was prepared by mixing 5 μL of 1M DTT and 80 μL of 10% (w/v) Chaps and 5 μL of a 10 μM 5-({[2-({[3-({4-[(5-hydroxy-2-methylphenyl)amino]-2-pyrimidinyl}amino)phenyl]carbonyl}amino) ethyl]amino}carbonyl)-2-(6-hydroxy-3-oxo-3H-xanthen-9-yl)benzoic acid stock solution into 9910 μL buffer (20 mM Tris, 15 mM MgCl2, pH 7.5). (Stock solution: 10 μM solution of 5-({[2-({[3-({4-[(5-hydroxy-2-methylphenyl)amino]-2-pyrimidinyl}amino)phenyl]carbonyl}amino)ethyl]amino}carbonyl)-2-(6-hydroxy-3-oxo-3H-xanthen-9-yl)benzoic acid in 100% DMSO)
Solution 2 was formed by mixing 53.8 μL of 2.6 μM hTNNI3K with a 6946.2 μL aliquot of Solution 1 (the above 5-({[2-({[3-({4-[(5-hydroxy-2-methylphenyl)amino]-2-pyrimidinyl}amino)phenyl]carbonyl}amino)ethyl]amino}carbonyl)-2-(6-hydroxy-3-oxo-3H-xanthen-9-yl)benzoic acid solution) to make up a 7 mL of mixture of hTNNI3K and 5-({[2-({[3-({4-[(5-hydroxy-2-methylphenyl)amino]-2-pyrimidinyl}amino)phenyl]carbonyl}amino)ethyl]amino}carbonyl)-2-(6-hydroxy-3-oxo-3H-xanthen-9-yl)benzoic acid (Solution 2).
Fifty (50) nL of inhibitors in DMSO (or DMSO controls) were stamped into a 384-well low volume Greiner black plate, followed by addition of 5 μL of Solution 1 to column 18 and 5 μL Solution 2 to columns 1-17 and 19-24 of the plate. The plate was then spun at 500 rpm for 30 seconds and incubated at room temperature for 60 minutes. After that, the fluorescent polarization was measured on Analyst (ex/em: 485/530 nm, Dichroic: 505). For dose response experiments, normalized data were fit by ABASE/XC50 and pXC50=(log((b−y)/(y−a)))/d−log(x), where x is the compound concentration and y is the % activity at specified compound concentration, a is the minimum % activity, b is the maximum % activity, and d is the Hill slope.
The pXC50s are averaged to determine a mean value, for a minimum of 2 experiments.

Row | IC50 | Structure (SMILES)
1 | 10 to 100 nM | CNS(=O)(=O)c1ccc(N2CCC[C@@H]2C(F)(F)F)c(Nc2ncnc3ccc(Cl)cc23)c1 [Example 22, 3-[(6-chloro-4-quinazolinyl)amino]-N-methyl-4-[(2R)-2-(trifluoromethyl)-1-pyrrolidinyl] benzenesulfonamide trifluoroacetate]
2 | 1 to 10 nM | CNS(=O)(=O)c1ccc(OC)c(Nc2ncnc3cc(OC)cc(OC)c23)c1 [Example 37, 3-{[5,7-bis(methyloxy)-4-quinazolinyl]amino}-N-methyl-4-(methyloxy) benzenesulfonamide hydrochloride]
3 | 1 to 10 nM and ~3.98 nM | CNS(=O)(=O)c1ccc(S(C)(=O)=O)c(Nc2ncnc3cc(OC)c(OC)cc23)c1 [Example 68, 3-{[6,7-bis(methyloxy)-4-quinazolinyl]amino}-N-methyl-4-(methylsulfonyl) benzenesulfonamide trifluoroacetate]
4 | 10 to 100 nM | CNS(=O)(=O)c1ccc(N2CCCCC2)c(Nc2ncnc3ccc(Cl)cc23)c1 [Example 26, 3-[(6-chloro-4-quinazolinyl)amino]-N-methyl-4-(1-piperidinyl) benzenesulfonamide trifluoroacetate]
5 | 1 to 10 nM | CCOc1cc(OC)cc2ncnc(Nc3cc(S(=O)(=O)NC)ccc3OC(C)C(F)(F)F)c12 (stereo not drawn) [Example 66, 3-{[5-(ethyloxy)-7-(methyloxy)-4-quinazolinyl]amino}-N-methyl-4-[(2,2,2-trifluoro-1-methylethyl)oxy] benzenesulfonamide]
6 | 1 to 10 nM | CNS(=O)(=O)c1ccc(N(C)C)c(Nc2ncnc3cc(OCCCN4CCOCC4)ccc23)c1 [Example 73, 4-(dimethylamino)-N-methyl-3-[(7-{[3-(4-morpholinyl)propyl]oxy}-4-quinazolinyl)amino]benzenesulfonamide hydrochloride]
7 | 10 to 100 nM | CNS(=O)(=O)c1ccc(OC(F)(F)F)c(Nc2ncnc3cc(OC)c(OC)c(OC)c23)c1 [Example 55, N-methyl-4-[(trifluoromethyl)oxy]-3-{[5,6,7-tris(methyloxy)-4-quinazolinyl]amino}benzene sulfonamide trifluoroacetate]
8 | 10 to 100 nM | CNS(=O)(=O)c1ccc(OC(C)C(F)(F)F)c(Nc2ncnc3cc(OC)cc(OC(C)C)c23)c1 (stereo not drawn) [Example 67, N-methyl-3-{[5-[(1-methylethyl)oxy]-7-(methyloxy)-4-quinazolinyl]amino}-4-[(2,2,2-trifluoro-1-methylethyl)oxy] benzenesulfonamide]
9 | 10 to 100 nM | CNS(=O)(=O)c1ccc(N(C)C)c(Nc2ncnc3ccc(N)cc23)c1 [Example 84, 3-((6-aminoquinazolin-4-yl)amino)-4-(dimethylamino)-N-methylbenzenesulfonamide]
10 | 1 to 10 nM | CNS(=O)(=O)c1ccc(OCC(F)(F)F)c(Nc2ncnc3cc(OC)cc(OC)c23)c1 [Example 31, 3-{[5,7-bis(methyloxy)-4-quinazolinyl]amino}-N-methyl-4-[(2,2,2-trifluoroethyl)oxy]benzenesulfonamide hydrochloride]
11 | 10 to 100 nM | CNS(=O)(=O)c1ccc(OCC(F)(F)F)c(Nc2ncnc3cc(OCCOC)c(OCCOC)cc23)c1 [Example 19, 3-[(6,7-bis{[2-(methyloxy)ethyl]oxy}-4-quinazolinyl)amino]-N-methyl-4-[(2,2,2-trifluoroethyl)oxy] benzenesulfonamide]
12 | 1 to 10 nM | CNS(=O)(=O)c1ccc(OC(C)C(F)(F)F)c(Nc2ncnc3cc(OC)cc(OC)c23)c1 (stereo not drawn) [Example 49, 3-{[5,7-bis(methyloxy)-4-quinazolinyl]amino}-N-methyl-4-[(2,2,2-trifluoro-1-methylethyl)oxy] benzenesulfonamide trifluoroacetate]
13 | 10 to 100 nM | CNS(=O)(=O)c1ccc(OCC(F)(F)F)c(Nc2ncnc3cc(OC)cc(OCCOC)c23)c1 [Example 60, N-methyl-3-[(7-(methyIoxy)-5-{[2-(methyloxy)ethyl]oxy}-4-quinazolinyl)amino]-4-[(2,2,2-trifluoroethyl)oxy]benzene-sulfonamide hydrochloride]
14 | 10 to 100 nM | CNS(=O)(=O)c1cc(Nc2ncnc3cc(OC)cc(OC)c23)c(OCC(F)(F)F)cc1F [Example 50, 5-{[5,7-bis(methyloxy)-4-quinazolinyl]amino}-2-fluoro-N-methyl-4-[(2,2,2-trifluoroethyl)oxy] benzenesulfonamide trifluoroacetate]
15 | 10 to 100 nM | CNS(=O)(=O)c1ccc(OCC(F)(F)F)c(Nc2ncnc3cc(OCCOC)c(OC)cc23)c1 [Example 81, 3-[6-methoxy-7-(2-methoxy-ethoxy)-quinazolin-4-ylamino]-N-methyl-4-(2,2,2-trifluoro-ethoxy)-benzenesulfonamide trifluoroacetate]
16 | 1 to 10 nM | CCOc1cc2ncnc(Nc3cc(S(=O)(=O)NC)ccc3OCC(F)(F)F)c2cc1OCC [Example 71, 3-{[6,7-bis(ethyloxy)-4-quinazolinyl]amino}-N-methyl-4-[(2,2,2-trifluoroethyl)oxy] benzenesulfonamide]
17 | 1 to 10 nM | CNS(=O)(=O)c1ccc(OC(C)C(F)(F)F)c(Nc2ncnc3cc(OC)c(OC)c(OC)c23)c1 (stereo not drawn) [Example 62, N-methyl-4-[(2,2,2-trifluoro-1-methylethyl)oxy]-3-{[5,6,7-tris(methyloxy)-4-quinazolinyl]amino}benzene sulfonamide trifluoroacetate]
18 | 1 to 10 nM | CNS(=O)(=O)c1cc(Nc2ncnc3cc(OC)cc(OC)c23)c(N(C)C)cc1F [Example 56, 5-{[5,7-bis(methyloxy)-4-quinazolinyl]amino}-4-(dimethylamino)-2-fluoro-N-methylbenzenesulfonamide hydrochloride]
19 | 10 to 100 nM | CNS(=O)(=O)c1cc(Nc2ncnc3cc(OC)cc(OC)c23)c(OC)cc1F [Example 51, 5-{[5,7-bis(methyloxy)-4-quinazolinyl]amino}-2-fluoro-N-methyl-4-(methyloxy) benzenesulfonamide trifluoroacetate]
20 | 10 to 100 nM | CNS(=O)(=O)c1ccc(OC(C)C)c(Nc2ncnc3cc(OC)c(OC)cc23)c1 [Example 5, 3-{[6,7-bis(methyloxy)-4-quinazolinyl]amino}-N-methyl-4-[(1-methylethyl)oxy]benzenesulfonamide]
21 | 1 to 10 nM | CNS(=O)(=O)c1ccc(N2CCCCC2)c(Nc2ncnc3cc(OC)c(OC)cc23)c1 [Example 25, 3-{[6,7-bis(methyloxy)-4-quinazolinyl]amino}-N-methyl-4-(1-piperidinyl) benzenesulfonamide trifluoroacetate]
